Measurements taken from patent US20250231157A1, “METHOD FOR DETERMINING THE PARTITION OF NAPHTHENIC ACIDS FROM A PRODUCTION WATER MIMICKING SYSTEM AND MIMICKING SYSTEM” (PETRÓLEO BRASILEIRO S.A. – PETROBRAS, priority 2023, published 2025).
“And” between values parts separate entries of the source, which are not always exact repeats. Equal values may be shown once.

Experiments:
[1] = Partition equilibrium with addition of calcium and strontium salts to the aqueous phase; assay type: physicochemical
Procedure: The addition of salts to the reaction system is of fundamental importance when one intends to mimic field conditions. In this sense, in addition to continuing the study of the salinity effect (Example 4), the insertion of salts containing Ca^2+ and Sr^2+ ions, known to be present in seawater, was tested. To this end, the projects were based on the literature (Zheng, J. et al. Offshore produced water management: A review of current practice and challenges in harsh/Arctic environments. Mar. Pol. Bul. 2016, 104, 7-19) and four concentrations of each of the two ions were evaluated (400.0, 1200.0, 2600.0 and 9000.0 mg·L^−1), maintaining salinity at 3.5% (m·v^−1).
In short, the experimental results were generated in triplicate, using 99% NaCl to add salinity to the aqueous fraction and PA calcium chloride and PA strontium chloride to add calcium and strontium, respectively.
The addition of calcium and strontium to the reaction system, in the form of salts, aims at mimicking the real scenario in which both species are present (regardless of the salinity of the medium), especially in the well condition. This study aimed at understanding the effect (on the migration of acids to the organic phase) of this ion in the system also at concentrations higher than 10 mM. Finally, the experiments (in triplicate) with divalent strontium ions followed the same rationale.

[2] = Partition equilibrium (migration to aqueous phase) heptol/water under pressure and temperature, central composite design, potentiometric titration; assay type: physicochemical; conditions: for Migration, Predicted: model value
Procedure: Three multivariate experimental designs (central composite designs) were performed in which the variables pressure (up to 1 MPa) and temperature (between 25° C. and 80° C.) were considered independent variables, with the migration of three acidic species as the response factor: benzoic, pentanoic and cyclohexanepentanoic acid. For this purpose, 5 levels were defined and gave rise to 10 experiments for each acidic species (Table 4), added to two control experiments (with higher pressure and temperature, as well as in the absence of pressure and at room temperature).
The experiments were performed with constant salinity of 3.5% (m·v^−1), constant heptol fraction (70:30, for heptane and toluene), and acidic species concentration of 0.03 M for benzoic and pentanoic acid, and 0.01 M for cyclohexanepentanoic acid. The results were evaluated with 95% confidence, using a response surface to estimate the maximum observable effect in each case, provided that the mathematical correlation was equal to or greater than R^2: 0.75.

[3] = Partition equilibrium in the presence of surfactants (TBA, CTA, TMA); assay type: physicochemical
Excerpt: The presence of chemical compounds usually added in the chain of unit operations of oil extraction and production, such as demulsifiers and surfactants, can affect the partition equilibrium of species in this water/oil system. In order to understand the extent of this effect, as well as discern the relevance of the chemical structure on this effect, the following items were chosen: • Dissolvan 961 (Clariant), composed of oil hydrocarbons (CAS 918-811-1) and ethanol (CAS 64-17-5); • Dissolvan 974 (Clariant), composed of EO-PO block polymer poly adducts and Bisphenol-A-diglycidyl ether (CAS 68123-18-2) and ethanol (CAS 64-17-5); • Tetrabutylammonium chloride (CAS 1112-67-0), 97% purity; • Cetyltrimethylammonium chloride (CAS 112-02-7), 25% in water; and • Trimethylammonium chloride (CAS 593-81-7), 98% purity.
For this study, the experiments (in triplicate) used between 100.0 and 1000.0 mg·L^−1 of each compound, comparing the results with control tests (absence of the component), all with constant salinity at 3.5% (m·v^−1). Finally, neutralization titration with a standardized NaOH titrant solution was used to determine the effect on the partition equilibrium for four acidic species (the same as in the other examples, except for dicyclohexylacetic acid).
Considering the study with surfactants, the (individual) addition of three species to the control system was evaluated (tetrabutylammonium chloride (TBA), tetramethylammonium chloride (TMA) and cetyltrimethylammonium chloride (CTA)). For this purpose, the surfactants have distinct chemical structures, namely the size of the side chain, and their eventual effect on the partition equilibrium of the acidic species was evaluated.

[4] = Partition equilibrium under the influence of salinity (NaCl), glass reactor, neutralization titration; assay type: physicochemical; conditions: Salinity 0 (%, m · m^−1) NaCl
[5] = as above; assay type: physicochemical
Procedure: The variation in salinity (and its effect on acidic species) is due to the large variation in salinity found between the portions of bottom-hole water, middle-well water and surface water. Thus, systems with salinity (i.e., NaCl) between 3.5 and 30% (m·v^−1) were tested in a glass reactor, and neutralization titration was performed (in triplicate analysis), as previously described. Furthermore, the experimental results were generated in triplicate, using 99% NaCl (Sigma-Aldrich) with five acidic species.

[6] = Partition equilibrium in the presence of demulsifiers (Dissolvan 961, Dissolvan 974)
[7] = 52 °C, 0.5 MPa (experiments 9 and 10)

Q: What does the source list for O=C(O)c1ccccc1 [Benzoic Acid, benzoic acid]?
A: Migration ([1]; Absence of ions, salinity 3.5%): 82.0 %, mol; Migration ([1]; Calcium 400 mg · L^−1, salinity 3.5%): 80.0 %, mol; Migration ([1]; Calcium 1200 mg · L^−1, salinity 3.5%): 56.7 %, mol; Migration ([1]; Calcium 2600 mg · L^−1, salinity 3.5%): 56.7 %, mol; Migration ([1]; Strontium 400 mg · L^−1, salinity 3.5%): 83.0 %, mol; Migration ([1]; Strontium 1200 mg · L^−1, salinity 3.5%): 83.0 %, mol; Migration ([1]; Strontium 2600 mg · L^−1, salinity 3.5%): 83.0 %, mol; Extent of salting out effect in the presence of calcium ([1]; calcium ions, salinity 3.5%): greater than 30%; Migration to the aqueous phase in the presence of strontium ([1]; strontium ions): above 80 % (m·v^−1); Migration, Measured ([2]; 20 °C, 0.1 MPa (experiment 12, control)): 57.0 %, mol; Migration, Increment (related to control) ([2]; 25 °C, 0.5 MPa (experiment 5)): 2.7 %, mol; Migration, Measured ([2]; 25 °C, 0.5 MPa (experiment 5)): 58.6 %, mol; Migration, Increment (related to control) ([2]; 38 °C, 0.25 MPa (experiment 1)): 6.9 %, mol; Migration, Measured ([2]; 38 °C, 0.25 MPa (experiment 1), heptol 70:30, 3.5% salinity): 61.0 %, mol; Migration, Increment (related to control) ([2]; 38 °C, 0.75 MPa (experiment 3)): 4.6 %, mol; Migration, Measured ([2]; 38 °C, 0.75 MPa (experiment 3)): 59.7 %, mol; Migration, Increment (related to control) ([2]; 52 °C, 0.1 MPa (experiment 7)): 16.4 %, mol; Migration, Measured ([2]; 52 °C, 0.1 MPa (experiment 7)): 66.4 %, mol; Migration, Increment (related to control) [2, 7]: 14.5 %, mol and 14.3 %, mol; Migration, Measured ([2]; 52 °C, 0.5 MPa (experiments 9 and 10, centre point)): 65.3 %, mol and 65.2 %, mol; Migration, Increment (related to control) ([2]; 52 °C, 1 MPa (experiment 8)): 16.8 %, mol; Migration, Measured ([2]; 52 °C, 1 MPa (experiment 8)): 66.7 %, mol; Migration, Increment (related to control) ([2]; 66 °C, 0.25 MPa (experiment 2)): 21.2 %, mol; Migration, Measured ([2]; 66 °C, 0.25 MPa (experiment 2)): 69.2 %, mol; Migration, Increment (related to control) ([2]; 66 °C, 0.75 MPa (experiment 4)): 19.8 %, mol; Migration, Measured ([2]; 66 °C, 0.75 MPa (experiment 4)): 68.4 %, mol; Migration, Increment (related to control) ([2]; 80 °C, 0.5 MPa (experiment 6)): 27.9 %, mol; Migration, Measured ([2]; 80 °C, 0.5 MPa (experiment 6)): 73.0 %, mol; Migration, Increment (related to control) ([2]; 80 °C, 1 MPa (experiment 11)): 26.3 %, mol; Migration, Measured ([2]; 80 °C, 1 MPa (experiment 11, control)): 72.1 %, mol; Migration, Predicted ([2]; 25 °C, 0.5 MPa (experiment 5)): 57.5 %, mol; Migration, Predicted ([2]; 38 °C, 0.25 MPa (experiment 1)): 62.5 %, mol; Migration, Predicted ([2]; 38 °C, 0.75 MPa (experiment 3)): 62 %, mol; Migration, Predicted ([2]; 52 °C, 0.1 MPa (experiment 7)): 66.1 %, mol; Migration, Predicted [2, 7]: 66.6 %, mol; Migration, Predicted ([2]; 52 °C, 1 MPa (experiment 8)): 65.5 %, mol; Migration, Predicted ([2]; 66 °C, 0.25 MPa (experiment 2)): 69.8 %, mol; Migration, Predicted ([2]; 66 °C, 0.75 MPa (experiment 4)): 69.8 %, mol; Migration, Predicted ([2]; 80 °C, 0.5 MPa (experiment 6)): 72.7 %, mol; Migration, Predicted ([2]; 80 °C, 1 MPa (experiment 11)): 66.6 %, mol; Migration ([3]; Absence of surfactant, salinity 3.5%): 82.0 %, mol; Migration ([3]; CTA100 (cetyltrimethylammonium chloride 100 mg · L^−1)): 57.1 %, mol; Migration ([3]; CTA1000 (1000 mg · L^−1)): 66.3 %, mol; Migration ([3]; TBA100 (tetrabutylammonium chloride 100 mg · L^−1)): 55.5 %, mol; Migration ([3]; TBA1000 (1000 mg · L^−1)): 54.8 %, mol; Migration ([3]; TMA100 (trimethylammonium chloride 100 mg · L^−1)): 63.4 %, mol; Migration ([3]; TMA1000 (1000 mg · L^−1)): 63.7 %, mol; Increase in migration to the aqueous phase with CTA ([3]; surfactant CTA, 1000 mg·L^−1): ~10%; Effect of TBA on migration to the aqueous phase ([3]; surfactant TBA, different concentrations): no significant effect; Increase in affinity for the hydrophilic phase with TMA ([3]; surfactant TMA, from 100 mg·L^−1): approximately 10%; Migration [4]: 82.9 %, mol; Salting out effect (reduction in the number of moles contained in the aqueous phase) ([5]; 30% (m·v^−1) NaCl versus tests without salinity): approximately 400%; Migration ([5]; Salinity 3.5 (%, m · m^−1) NaCl): 83.0 %, mol; Migration ([5]; Salinity 18.0 (%, m · m^−1) NaCl): 41.0 %, mol; Migration ([5]; Salinity 30.0 (%, m · m^−1) NaCl): 22.5 %, mol; Migration ([5]; Salinity 30.0 (%, m · m^−1) NaCl, listed as benzoic acid): 22.51 %, mol; Migration ([6]; Absence of ions (no demulsifier), salinity 3.5%): 82.0 %, mol; Migration ([6]; D961 50 mg · L^−1): 62.3 %, mol; Migration ([6]; D961 100 mg · L^−1): 70.3 %, mol; Migration ([6]; D961 1000 mg · L^−1): 68.4 %, mol; Migration ([6]; D974 50 mg · L^−1): 63.1 %, mol; Migration ([6]; D974 100 mg · L^−1): 57.3 %, mol; Migration ([6]; D974 1000 mg · L^−1): 59.7 %, mol
